From patent publication US12065445B2, “CDK2 inhibitors and methods of using the same” (Cedilla Therapeutics, Inc., priority 2021, dated 2024)

Key:
[1] = tested on: Kuramochi cells; test: BrdU Cell Proliferation Assay; format: cell-based; conditions: read-out: BrdU - KURAMOCHI.1: IC50
Procedure, shortened: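 Kuramochi cells were seeded at 2,000 cells/well, adhered overnight, then treated with a 10-point, 3-fold compound dilution series for 4 days. Proliferation was measured by a 1-hour BrdU pulse, anti-BrdU peroxidase colorimetric ELISA and 450 nm absorbance. Values were background-subtracted and normalized to DMSO wells.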

[2] = tested on: Kuramochi cells labeled with mApple-H2B; test: IncuCyte Cell Proliferation Assay; format: cell-based; conditions: 72 h
Procedure, shortened: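 Cells imaged at 0 and 72 h after compound treatment (10 points, ½ log dilution, 20 μM top), with fluorescent nuclei counted. Fold change in count was normalized to DMSO wells and fitted to dose-response curves to give GI50.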

SMILES	IC50 [1] [µM]	IC50 [2] [µM]
CNC(=O)[C@@H](NC(=O)[C@@H]1CN(C(=O)c2cncs2)CC12CN(C(=O)[C@H]1CC1(C)C)C2)[C@H](O)CC1CCCCC1 [I-379]	> 10	> 20
CNC(=O)[C@@H](NC(=O)C1CN(C(=O)c2cnn(Cc3ccccc3)c2)CC12CN(C(=O)[C@H]1CC1(C)C)C2)[C@@H](C)OCc1ccccn1 (stereo partly drawn) [I-257]	> 10	> 20
CNC(=O)[C@@H](NC(=O)[C@H]1CN(C(=O)c2cnc(C)s2)CC12CN(C(=O)[C@H]1CC1(C)C)C2)[C@@H](C)OCC1CCCCC1 [I-156B]	> 10	> 20
CNC(=O)[C@@H](NC(=O)[C@@H]1CN(C(=O)c2cncs2)CC12CN(C(=O)[C@H]1CC1(C)C)C2)[C@@H](C)OC1CCCCC1 [I-290]	> 10	5 to 20
C[C@@H](OCC1CCCCC1)[C@@H](CO)NC(=O)[C@@H]1CN(C(=O)c2cnn(Cc3ccccc3)c2)CC12CN(C(=O)[C@H]1CC1(C)C)C2 [I-135A]	0.5 to 5	0.5 to 5
COC[C@H]1CCCN(C(=O)[C@@H](NC(=O)[C@@H]2CN(C(=O)c3cncs3)CC23CN(C(=O)[C@H]2CC2(C)C)C3)[C@@H](C)OCc2ccc(Cl)cc2F)C1 [I-317]	0.5 to 5	0.5 to 5
CC1(C)C[C@@H]1C(=O)N1CC2(CN(C(=O)c3cnn(Cc4ccccc4)c3)C[C@H]2C(=O)NCc2ccc(C3CCCCC3)nn2)C1 [I-377]	> 10	> 20
C[C@@H](OCC1CCCCC1)[C@H](NC(=O)[C@@H]1CN(C(=O)c2cnn(Cc3ccccc3)c2)CC12CN(C(=O)[C@H]1CC1(C)C)C2)C(=O)N1CCOCC1 [I-152A]	≤ 0.5	≤ 0.5
CNC(=O)C(NC(=O)[C@@H]1CN(C(=O)c2cn[nH]c2)CC12CN(C(=O)[C@H]1CC1(C)C)C2)C(O)Cc1ccccc1 (stereo partly drawn) [I-298]	> 10	> 20
CC1(C)C[C@@H]1C(=O)N1CC2(CN(C(=O)c3cnn(Cc4ccccc4)c3)C[C@@H]2C(=O)N[C@H]2CCc3cc(Cl)ccc32)C1 [I-133B]	> 10	> 20
C[C@@H](OCC1CCCCC1)[C@@H](COC(F)(F)F)NC(=O)[C@@H]1CN(C(=O)c2cnn(Cc3ccccc3)c2)CC12CN(C(=O)[C@H]1CC1(C)C)C2 [I-309]	0.5 to 5	0.5 to 5
CNC(=O)[C@@H](NC(=O)[C@H]1CN(C(=O)c2cnn(Cc3ccccc3)c2)CC12CN(C(=O)[C@H]1CC1(C)C)C2)[C@@H](C)OCC1CCC(C(F)(F)F)CC1 (stereo partly drawn) [I-141B]	0.5 to 5	5 to 20
COC[C@H]1CCCN(C(=O)[C@@H](C)NC(=O)[C@@H]2CN(C(=O)c3cncs3)CC23CN(C(=O)[C@H]2CC2(C)C)C3)C1 [I-324]	> 10	> 20
CNC(=O)[C@@H](NC(=O)[C@@H]1CN(C(=O)c2cncs2)CC12CN(C(=O)[C@H]1CC1(C)C)C2)C1(OCC2CCCCC2)CC1 [I-401]	0.5 to 5	0.5 to 5
CNC(=O)[C@@H](NC(=O)[C@@H]1CN(C(=O)c2cnn(Cc3ccccc3)c2)CC12CN(C(=O)C(C)(C)C1CC1)C2)[C@@H](C)OCc1ccccc1 [I-276]	> 10	> 20
COC[C@H]1CCCN(C(=O)CNC(=O)[C@@H]2CN(C(=O)c3cncs3)CC23CN(C(=O)[C@H]2CC2(C)C)C3)C1 [I-323]	> 10	> 20
COC[C@H]1CCCN(C(=O)[C@@H](NC(=O)[C@@H]2CN(C(=O)c3cncs3)CC23CN(C(=O)[C@H]2CC2(C)C)C3)[C@@H](C)OC(C)C2CCCCC2)C1 (stereo partly drawn) [I-374]	0.5 to 5	0.5 to 5
C[C@@H](OCC1CCCCC1)[C@H](NC(=O)C1CN(C(=O)c2cnn(Cc3ccccc3)c2)CC12CN(C(=O)[C@H]1CC1(C)C)C2)C(=O)N1CCOCC1 (stereo partly drawn) [I-152 mixture]	≤ 0.5	≤ 0.5

SMILES	IC50 [1] [µM]	IC50 [2] [µM]
CNC(=O)[C@@H](NC(=O)[C@@H]1CN(C(=O)Cc2cn[nH]c2)CC12CN(C(=O)[C@H]1CC1(C)C)C2)[C@@H](C)OCc1ccccc1 [I-358]	> 10	> 20
CNC(=O)[C@@H](NC(=O)[C@@H]1CN(C(=O)c2cncs2)CC12CN(C(=O)[C@H]1CC1(C)C)C2)[C@@H](C)OCC1CC2CCC1O2 (stereo partly drawn) [I-462]	> 10	> 20
CC1(C)C[C@@H]1C(=O)N1CC2(CN(C(=O)c3cnn(Cc4ccccc4)c3)C[C@H]2C(=O)NCc2nnc[nH]2)C1 [I-191A]	> 10	> 20
CNC(=O)[C@@H](NC(=O)[C@H]1CN(C(=O)c2cnn(Cc3ccccc3)c2)CC12CN(C(=O)[C@H]1CC1(C)C)C2)[C@@H](C)OCCC1CCCCC1 [I-125B]	0.5 to 5	0.5 to 5
CC1(C)C[C@@H]1C(=O)N1CC2(CN(C(=O)c3cnn(Cc4ccccc4)c3)C[C@H]2C(=O)NCc2cccnn2)C1 [I-359]	> 10	> 20
C[C@@H](OCC1CCCCC1)[C@H](NC(=O)C1CN(C(=O)c2cnn(Cc3ccccc3)c2)CC12CN(C(=O)[C@H]1CC1(C)C)C2)C(=O)N1CCCCC1 (stereo partly drawn) [I-194 mixture]	≤ 0.5	≤ 0.5
Cc1ccc(CNC(=O)[C@@H]2CN(C(=O)c3cnn(Cc4ccccc4)c3)CC23CN(C(=O)[C@H]2CC2(C)C)C3)cn1 [I-364]	> 10	5 to 20
C[C@@H](OCC1CCCCC1)[C@@H](CO)NC(=O)[C@H]1CN(C(=O)c2cnn(Cc3ccccc3)c2)CC12CN(C(=O)[C@H]1CC1(C)C)C2 [I-135B]	> 10	5 to 20
CC1(C)C[C@@H]1C(=O)N1CC2(CN(C(=O)c3cnn(Cc4ccccc4)c3)C[C@H]2C(=O)NC[C@H]2CC[C@H](C)CC2)C1 [I-382]	> 10	> 20
CNC(=O)[C@@H](NC(=O)[C@@H]1CN(C(=O)c2cncs2)CC12CN(C(=O)[C@H]1CC1(C)C)C2)[C@@H](C)OC(C)C1CCCCC1 (stereo partly drawn) [I-279]	0.5 to 5	0.5 to 5
CNC(=O)[C@@H](NC(=O)[C@@H]1CN(C(=O)c2scnc2C(C)(C)C)CC12CN(C(=O)[C@H]1CC1(C)C)C2)[C@@H](C)OCC1CCCCC1 [I-231A]	> 10	> 20
CNC(=O)[C@@H](NC(=O)[C@@H]1CN(C(=O)c2cnn(Cc3ccccc3)c2)CC12CN(C(=O)[C@H]1CC1(C)C)C2)[C@@H](C)N(C)CC1CCCCC1 [I-266]	> 10	> 20
CNC(=O)[C@@H](NC(=O)[C@@H]1CN(C(=O)c2cnn(Cc3ccccc3)c2)CC12CN(C(=O)[C@H]1CC1(C)C)C2)[C@@H](C)OC[C@H]1CC[C@H](OC)CC1 [I-403]	> 10	> 20
COC[C@H]1CCCN(C(=O)[C@@H](NC(=O)[C@@H]2CN(C(=O)c3cncs3)CC23CN(C(=O)[C@H]2CC2(C)C)C3)[C@@H](C)OC[C@H]2CC[C@H](OC)CC2)C1 [I-402]	0.5 to 5	0.5 to 5
C[C@@H](OCC1CCCCC1)[C@@H](COCC1CCCCC1)NC(=O)[C@@H]1CN(C(=O)c2cncs2)CC12CN(C(=O)[C@H]1CC1(C)C)C2 [I-282]	≤ 0.5	≤ 0.5
Cc1ccc(CNC(=O)[C@@H]2CN(C(=O)c3cnn(Cc4ccccc4)c3)CC23CN(C(=O)[C@H]2CC2(C)C)C3)nc1 [I-365]	> 10	> 20
CNC(=O)C(NC(=O)[C@@H]1CN(C(=O)c2cncs2)CC12CN(C(=O)[C@H]1CC1(C)C)C2)c1cccc(N2CC3(COC3)C2)n1 (stereo partly drawn) [I-427]	> 10	> 20
CNC(=O)[C@@H](NC(=O)[C@@H]1CN(C(=O)c2cncs2)CC12CN(C(=O)[C@H]1CC1(C)C)C2)[C@@H](C)OCC1CCC2(CC1)CC2 [I-355]	0.5 to 5	≤ 0.5
